Test results from US20260108546A1 (ELI LILLY AND COMPANY, priority 2024, published 2026).
Counter-ions that a name gives are not always drawn.

Target: T1, hGIP-R (Homo sapiens, UniProt P48546)
T1 construct: expressed in transfected cells; host or cells: HEK-293 clonal cell lines
T1 sequence (P48546 22-466): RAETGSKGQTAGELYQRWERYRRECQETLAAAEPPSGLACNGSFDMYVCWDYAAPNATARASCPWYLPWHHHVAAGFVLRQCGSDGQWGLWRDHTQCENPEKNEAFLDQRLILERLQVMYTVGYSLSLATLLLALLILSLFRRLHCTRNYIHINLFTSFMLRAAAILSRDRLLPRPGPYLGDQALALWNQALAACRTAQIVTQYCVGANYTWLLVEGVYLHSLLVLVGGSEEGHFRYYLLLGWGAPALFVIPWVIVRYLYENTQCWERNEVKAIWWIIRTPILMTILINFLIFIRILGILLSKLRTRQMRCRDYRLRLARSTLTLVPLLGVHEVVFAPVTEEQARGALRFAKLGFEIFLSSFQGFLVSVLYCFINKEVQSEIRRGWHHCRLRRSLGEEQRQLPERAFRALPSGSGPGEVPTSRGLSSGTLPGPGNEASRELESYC
Assay: Functional hGIP-R Assay (cAMP formation, HTRF)
Type: cell-based
Details: for Emax: cAMP efficacy, percent of maximal response to GIP(1-42)OH, 37° C., 0.1% bovine casein, arithmetic mean ± SEM; for EC50: cAMP potency, HEK-293 cells expressing hGIP-R, incubated at 37° C. in the presence of 0.1% bovine casein, geometric mean, read-out: Human GIP-R EC50, nM (SEM, n)
In short: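 Relative EC50 and Emax came from four-parameter logistic fits of cAMP as a percent of the human GIP (1-42) OH maximal response. The cAMP was measured by competitive HTRF after 30 min, 37 °C compound exposure of hGIP-R HEK-293 clones in IBMX (250 μM)-containing medium.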

Structure (SMILES) | Emax | EC50
COc1ncc(-c2ccc([C@H]3C[C@@]34CCN([C@H](Cc3cnn(C(F)F)c3)C(=O)NC(C)(C)Cn3nc(C(F)(F)F)cc3-c3ccn(C5CC5)c(=O)c3)C4=O)c(C)n2)cn1 [Example 173, (R)-N-(1-(5-(1-cyclopropyl-2-oxo-1,2-dihydropyridin-4-yl)-3-(trifluoromethyl)-1H-pyrazol-1-yl)-2-methylpropan-2-yl)-3-(1-(difluoromethyl)-1H-pyrazol-4-yl)-2-((1R,3R)-1-(6-(2-methoxypyrimidin-5-yl)-2-methylpyridin-3-yl)-4-oxo-5-azaspiro[2.4]heptan-5-yl)propanamide] | 15.9 ± 0.138% | 24.6 nM
CC(C)(Cc1ccc(F)cc1)NC(=O)[C@@H](Cc1cnc2ncccn12)NC(=O)[C@H]1C[C@@H]1c1ccc(-c2cnc3nccn3c2)cc1 [Example 87, (1S,2S)-N-((R)-1-((1-(4-Fluorophenyl)-2-methylpropan-2-yl)amino)-3-(imidazo[1,2-a]pyrimidin-3-yl)-1-oxopropan-2-yl)-2-(4-(imidazo[1,2-a]pyrimidin-6-yl)phenyl)cyclopropane-1-carboxamide] | 71.1 ± 9.09% | 52.7 nM
[2H]C([2H])([2H])n1cc(C[C@H](C(=O)NC(C)(C)Cn2nc(C(F)(F)F)cc2-c2ccc(C(C)(C)OP(=O)(O)O)nc2)N2CC[C@@]3(C[C@@H]3c3ccc(-c4cnc5nn(C)cc5c4)cc3Cl)C2=O)cn1 [Example 195, 2-(5-(1-(2-((R)-2-((1S,3R)-1-(2-Chloro-4-(2-methyl-2H-pyrazolo[3,4-b]pyridin-5-yl)phenyl)-4-oxo-5-azaspiro[2.4]heptan-5-yl)-3-(1-(methyl-d3)-1H-pyrazol-4-yl)propanamido)-2-methylpropyl)-3-(trifluoromethyl)-1H-pyrazol-5-yl)pyridin-2-yl)propan-2-yl dihydrogen phosphate, ammonia salt] | 88.8% | 2.36 nM
[2H]C([2H])([2H])n1cc(C[C@H](C(=O)NC(C)(C)Cn2nc(C(F)(F)F)cc2-c2cnc(C(C)(C)O)nc2)N2CC[C@@]3(C[C@@H]3c3ccc(-c4cnc5nc(C)cn5c4)cc3Cl)C2=O)cn1 [Example 187, (R)-2-((1S,3R)-1-(2-chloro-4-(2-methylimidazo[1,2-a]pyrimidin-6-yl)phenyl)-4-oxo-5-azaspiro[2.4]heptan-5-yl)-N-(1-(5-(2-(2-hydroxypropan-2-yl)pyrimidin-5-yl)-3-(trifluoromethyl)-1H-pyrazol-1-yl)-2-methylpropan-2-yl)-3-(1-(methyl-d3)-1H-pyrazol-4-yl)propanamide] | 84.6 ± 2.33% | 1.26 nM
CC(C)(Cn1nc(C(F)(F)F)cc1-c1ccn(C2CC2)c(=O)c1)NC(=O)[C@@H](Cc1cnn(C(F)F)c1)N1CCC2(CC2c2ccc(-c3cnc4nc(C5CC5)cn4c3)nc2C2CC2)C1=O (single isomer, unassigned) [Example 166] | 116 ± 2.13% | 0.359 nM
[2H]C([2H])([2H])n1cc(-c2cc(C(F)(F)F)nn2CC(C)(C)NC(=O)[C@@H](Cc2cnn(C(F)F)c2)N2CC[C@@]3(C[C@@H]3c3ccc(-c4cnc5nn(C)cc5c4)cc3)C2=O)cc(F)c1=O [Example 141, (R)-3-(1-(Difluoromethyl)-1H-pyrazol-4-yl)-N-(1-(5-(5-fluoro-1-(methyl-d3)-6-oxo-1,6-dihydropyridin-3-yl)-3-(trifluoromethyl)-1H-pyrazol-1-yl)-2-methylpropan-2-yl)-2-((1R,3R)-1-(4-(2-methyl-2H-pyrazolo[3,4-b]pyridin-5-yl)phenyl)-4-oxo-5-azaspiro[2.4]heptan-5-yl)propanamide] | 60.9 ± 5.88% | 26.2 nM
CN(C(=O)[C@H]1C[C@@H]1c1ccc(-c2cnc3nccn3c2)cc1)[C@H](Cc1cnn(C)c1)C(=O)NC(C)(C)Cn1nc(C(F)(F)F)cc1-c1ccc(=O)n(C)c1 [Example 34, (1S,2S)-2-(4-(imidazo[1,2-a]pyrimidin-6-yl)phenyl)-N-methyl-N-((R)-1-((2-methyl-1-(5-(1-methyl-6-oxo-1,6-dihydropyridin-3-yl)-3-(trifluoromethyl)-1H-pyrazol-1-yl)propan-2-yl)amino)-3-(1-methyl-1H-pyrazol-4-yl)-1-oxopropan-2-yl)cyclopropane-1-carboxamide] | 113 ± 12.3% | 183 nM
Cn1cc(C[C@@H](NC(=O)[C@H]2C[C@@H]2c2ccc(-c3cnc4nn(C)cc4c3)cc2)C(=O)NC(C)(C)Cn2nc(C(F)(F)F)cc2-c2cccn(C)c2=O)cn1 [Example 58, (1S,2S)-N-((R)-1-((2-Methyl-1-(5-(1-methyl-2-oxo-1,2-dihydropyridin-3-yl)-3-(trifluoromethyl)-1H-pyrazol-1-yl)propan-2-yl)amino)-3-(1-methyl-1H-pyrazol-4-yl)-1-oxopropan-2-yl)-2-(4-(2-methyl-2H-pyrazolo[3,4-b]pyridin-5-yl)phenyl) cyclopropane-1-carboxamide] | 110 ± 1.71% | 23.8 nM
Cn1cc(C[C@H](C(=O)NC(C)(C)Cn2nc(C(F)(F)F)cc2-c2ccc(=O)n(C)c2)N2CC[C@@]3(C[C@@H]3c3ccc(-c4cnc5nn(C)cc5c4)cc3)C2=O)cn1 [Example 98, (R)—N-(2-Methyl-1-(5-(1-methyl-6-oxo-1,6-dihydropyridin-3-yl)-3-(trifluoromethyl)-1H-pyrazol-1-yl)propan-2-yl)-3-(1-methyl-1H-pyrazol-4-yl)-2-((1R,3R)-1-(4-(2-methyl-2H-pyrazolo[3,4-b]pyridin-5-yl)phenyl)-4-oxo-5-azaspiro[2.4]heptan-5-yl)propanamide] | 110 ± 3.22% | 35.5 nM
Cn1cc2cc(-c3ccc([C@H]4C[C@@]45CCN([C@H](Cc4cnn(C(F)F)c4)C(=O)NC(C)(C)Cn4nc(C(F)(F)F)cc4-c4ccn(C6CC6)c(=O)n4)C5=O)c(Cl)c3)cnc2n1 [Example 161, (R)-2-((1S,3R)-1-(2-chloro-4-(2-methyl-2H-pyrazolo[3,4-b]pyridin-5-yl)phenyl)-4-oxo-5-azaspiro[2.4]heptan-5-yl)-N-(1-(5-(1-cyclopropyl-2-oxo-1,2-dihydropyrimidin-4-yl)-3-(trifluoromethyl)-1H-pyrazol-1-yl)-2-methylpropan-2-yl)-3-(1-(difluoromethyl)-1H-pyrazol-4-yl)propanamide] | 71.7 ± 1.02% | 1.47 nM
COCc1cn2cc(-c3ccc([C@H]4C[C@@H]4C(=O)N[C@H](Cc4cnc5ncccn45)C(=O)NC(C)(C)Cn4cc(C(F)(F)F)cn4)cc3)cnc2n1 [Example 75, (1S,2S)-N-((R)-3-(Imidazo[1,2-a]pyrimidin-3-yl)-1-((2-methyl-1-(4-(trifluoromethyl)-1H-pyrazol-1-yl)propan-2-yl)amino)-1-oxopropan-2-yl)-2-(4-(2-(methoxymethyl)imidazo[1,2-a]pyrimidin-6-yl)phenyl)cyclopropane-1-carboxamide] | 119 ± 6.64% | 65 nM
Cn1cc2cc(-c3ccc([C@H]4C[C@@]45CCN([C@H](Cc4cnn(C(F)F)c4)C(=O)NC4(Cn6nc(C(F)(F)F)cc6-c6cc(F)c(=O)n(C)c6)CC4)C5=O)c(F)c3)cnc2n1 (single isomer, unassigned; isomer 1) [Example 119] | 79.5 ± 5.3% | 144 nM
Cn1cc2cc(-c3ccc([C@H]4C[C@@]45CCN([C@H](Cc4cnn(C(F)F)c4)C(=O)NC(C)(C)Cn4nc(C(F)(F)F)cc4-c4cc(F)c(=O)n(C)c4)C5=O)c(F)c3)cnc2n1 (single isomer, unassigned; isomer 1) [Example 99] | 69.2 ± 0.431% | 6.84 nM
[2H]C([2H])([2H])n1cc(C[C@H](C(=O)NC(C)(C)Cn2nc(C(F)(F)F)cc2-c2ccc(C)nc2)N2CC[C@@]3(C[C@@H]3c3ccc(-c4cnc5nc(C6CC6)cn5c4)nc3C)C2=O)cn1 [Example 175, (R)-2-((1R,3R)-1-(6-(2-cyclopropylimidazo[1,2-a]pyrimidin-6-yl)-2-methylpyridin-3-yl)-4-oxo-5-azaspiro[2.4]heptan-5-yl)-N-(2-methyl-1-(5-(6-methylpyridin-3-yl)-3-(trifluoromethyl)-1H-pyrazol-1-yl)propan-2-yl)-3-(1-(methyl-d3)-1H-pyrazol-4-yl)propanamide] | 112 ± 1.44% | 0.996 nM
Cc1cn2cc(-c3ccc([C@H]4C[C@@]45CCN([C@H](Cc4cnn(C(F)F)c4)C(=O)NC(C)(C)Cn4nc(C(F)(F)F)cc4-c4ccc(=O)n(COP(=O)(O)O)n4)C5=O)c(F)c3)cnc2n1 [Example 151, (3-(1-(2-((R)-3-(1-(Difluoromethyl)-1H-pyrazol-4-yl)-2-((1S,3R)-1-(2-fluoro-4-(2-methylimidazo[1,2-a]pyrimidin-6-yl)phenyl)-4-oxo-5-azaspiro[2.4]heptan-5-yl)propanamido)-2-methylpropyl)-3-(trifluoromethyl)-1H-pyrazol-5-yl)-6-oxopyridazin-1 (6H)-yl)methyl dihydrogen phosphate] | 106 ± 2.17% | 16.9 nM
